Reference: patent US12600732B2, “Bifunctional compounds for degrading BTK via ubiquitin proteosome pathway” (NURIX THERAPEUTICS, INC., priority 2019, dated 2026)
pEC50: −log10 of the molar value. Like-named read-outs stand apart in the source and are kept apart here.

Columns and labels:
[1] = test system: B cell receptor (BCR) signaling; assay: B cell activation assay (flow cytometry), human B cells; type: cell-based; conditions: treatment 4 h, IgM stimulation 18 h
Description: Compound was present throughout the stimulation. Cells were stained with Live/Dead dye (Fisher L34976) and then fluorophore-conjugated antibodies against CD20 (Biolegend 302330), CD3 (BD Pharmingen 557705), CD86 (Biolegend 305416) and CD69 (Biolegend 310906). Stained cells were fixed in PFA and run on an Attune N×T Acoustic Focusing Flow Cytometer (Thermo-Fisher A29004), and data was analyzed using FlowJo (v10.5.3) and GraphPad Prism (v7.00) software. Single live lymphocytes were gated for B cells (CD20+CD3−) and T cells (CD3+CD20−), and the geometric mean fluorescence intensity (MFI) of CD86 and CD69 was calculated for each population. The MFI of the unstimulated sample was used to quantify baseline activation.
This example evaluates whether CTM treatment affects B cell receptor (BCR) signaling. BTK is activated downstream of the B cell receptor and leads to upregulation of activation markers CD86 and CD69 on the surface of B cells.

[2] = test system: primary human T cells; assay: T cell activation assay, CD25 and CD69 staining (flow cytometry); type: cell-based; conditions: for CD25 Staining Anti-CD3/Anti-CD28 Stimulation / CD69 Staining Anti-CD3/Anti-CD28 Stimulation: fold-change of response relative to baseline
In short: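 Primary human T cells stimulated via TCR with anti-CD3/anti-CD28 in the presence of test compound. IL-2 secretion measured by ELISA; surface CD25 and CD69 by flow cytometry. Values are fold-change versus anti-CD3/anti-CD28 stimulation without compound.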

[3] = test system: Rec-1 cells; assay: Cell viability assay (CellTiter-Glo), Rec-1 cells; type: cell-based
Description: This example evaluates effects of CTM-mediated degradation on cell viability. […] Mino and Rec-1 are models of Mantle Cell Lymphoma, which is sensitive to IMiDs.

[4] = test system: Aiolos; assay: Non-human primate (cyno) DRF PD, Aiolos remaining in T cells; type: in vivo; conditions: for % Aiolos Remaining in T cells: blood, 24 h after previous dose
Description: This example evaluates potency and tolerability of BTK CTMs following multiple, consecutive days of dosing and examines potency of compounds for BTK and Aiolos degradation. The data in the table below is from a study in which animals were dosed daily with the designated oral dose. Analysis for BTK and Aiolos levels was performed twenty-four hours following the previous dose.

[5] = test system: BTK; assay: PD data from cyno (BTK degradation); type: in vivo; conditions: blood
Description: In this example, compounds were profiled for activity in non-mouse species.

[6] = PK data for BTK CTMs (in vivo plasma concentrations); conditions: for Vd: read-out: Volume of Distribution
Description: The present example evaluates in vivo plasma concentrations of BTK CTMs to develop PK-PD-efficacy relationship and predict human exposure.

[7] = Compound plasma exposure in mouse (CD-1), daily oral dosing, same table as the cyno DRF study; type: in vivo; conditions: CD-1, mouse
[8] = Compound plasma exposure in cyno DRF study; type: in vivo; conditions: cynomolgus monkey, po
[9] = target: BTK (Homo sapiens, UniProt Q06187); assay: BTK degradation in human PBMCs (BTK flow cytometry), primary human B cells; type: cell-based; parameters: endogenous in cells; host or cells: human PBMC (B cells) from healthy donors; conditions: treatment time 4 h
Description: Human peripheral blood mononuclear cells (PBMC) were obtained either: 1) by using Ficoll-Paque™ (GE Healthcare) for separation of peripheral blood hematopoietic cells from buffy coats of healthy human donors; or 2) directly from LeukoPak donations. PBMCs were grown at 37° C. and 5% CO2 in RPMI supplemented with 10% heat-inactivated FBS (Corning Premium Fetal Bovine Serum from Fisher, MT35015CV), 1× Penicillin/Streptomycin, and 2 mM Glutamine.
BTK Degradation in Human PBMCs (BTK Flow Cytometry)
This example evaluates the potency of CTMs in primary human B cells, rather than transformed or immortalized cancer cell lines. Primary cells are believed to be a physiologically relevant model. Thus, this example confirms the potency, kinetics, and level of BTK degradation in these cells in addition to the cell line models. Furthermore, this assay establishes that it is possible to monitor BTK degradation in primary human B cells, which can serve as a clinical biomarker.

[10] = Rat Sprague-Dawley, 10 mg/kg PO
[11] = 30 mg/kg, 30 mg/kg PO, 1 day of dosing
[12] = 30 mg/kg, 30 mg/kg PO, 14 days of dosing
[13] = 100 mg/kg, 100 mg/kg PO, 1 day of dosing
[14] = 100 mg/kg, 100 mg/kg PO, 14 days of dosing
[15] = 300 mg/kg, 300 mg/kg PO, 1 day of dosing
[16] = 300 mg/kg, 300 mg/kg PO, 14 days of dosing

Chain of BTK (Homo sapiens, UniProt Q06187) (Q06187 whole entry): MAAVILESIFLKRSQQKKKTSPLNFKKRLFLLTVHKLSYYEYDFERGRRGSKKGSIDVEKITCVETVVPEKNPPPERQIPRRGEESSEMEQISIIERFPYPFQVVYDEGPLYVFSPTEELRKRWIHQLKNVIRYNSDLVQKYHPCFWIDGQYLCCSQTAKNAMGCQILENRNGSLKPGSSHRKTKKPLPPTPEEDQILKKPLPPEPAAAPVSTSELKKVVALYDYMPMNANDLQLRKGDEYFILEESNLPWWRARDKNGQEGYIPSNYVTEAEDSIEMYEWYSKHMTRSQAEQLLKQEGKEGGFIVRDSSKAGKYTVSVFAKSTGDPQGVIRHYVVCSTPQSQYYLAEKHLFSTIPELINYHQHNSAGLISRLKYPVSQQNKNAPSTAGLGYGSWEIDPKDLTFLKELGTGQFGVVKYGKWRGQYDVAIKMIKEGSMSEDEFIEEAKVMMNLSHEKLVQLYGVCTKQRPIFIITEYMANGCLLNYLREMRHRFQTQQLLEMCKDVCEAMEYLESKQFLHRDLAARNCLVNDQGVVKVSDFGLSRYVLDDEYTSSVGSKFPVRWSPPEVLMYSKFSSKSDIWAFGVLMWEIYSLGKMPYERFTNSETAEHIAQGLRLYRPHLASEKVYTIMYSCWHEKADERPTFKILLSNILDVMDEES

## NC(=O)c1ncc(N2CCCCC2)nc1Nc1ccc(C2CCN(C[C@@H]3CCN(c4ccc5c(c4)C(=O)N(C4CCC(=O)NC4=O)C5=O)C3)CC2)cc1 (stereo partly drawn) [Compound 149]
[1]; read-out: CD69 EC50
  pEC50: 8.40
[1]; read-out: CD86 EC50
  pEC50: 8.30
[2]; 1.4 nM
  CD25 Staining Anti-CD3/Anti-CD28 Stimulation: 1.31
  CD69 Staining Anti-CD3/Anti-CD28 Stimulation: 1.22
[2]; 37 nM
  CD25 Staining Anti-CD3/Anti-CD28 Stimulation: 1.02
  CD69 Staining Anti-CD3/Anti-CD28 Stimulation: 0.93
[2]; 333 nM
  CD25 Staining Anti-CD3/Anti-CD28 Stimulation: 0.61
  CD69 Staining Anti-CD3/Anti-CD28 Stimulation: 0.63
[2]; primary human T cells
  expression of CD25 and CD69 compared to baseline (anti-CD3/anti-CD28 stimulation alone): unchanged or decreased levels
[3]; Homo sapiens, Rec1, treatment time 72 h
  pEC50: 9.77
[3]; treatment time 72 h
  EMAX (% viable cells): 24%
[4]; after fourteen days of dosing
  Aiolos degradation: demonstrated Aiolos degradation
[4]; 10 mg/kg PO daily, 1 day of dosing
  % Aiolos Remaining in T cells: 79%
[4]; 10 mg/kg PO daily, 14 days of dosing
  % Aiolos Remaining in T cells: 76%
[4]; 30 mg/kg PO daily, 1 day of dosing
  % Aiolos Remaining in T cells: 74%
[4]; 30 mg/kg PO daily, 14 days of dosing
  % Aiolos Remaining in T cells: 55%
[4]; 100 mg/kg PO daily, 1 day of dosing
  % Aiolos Remaining in T cells: 77%
[4]; 100 mg/kg PO daily, 14 days of dosing
  % Aiolos Remaining in T cells: 43%
[5]; 1 mg/kg IV, 2 h
  % BTK Remaining: 24%
[5]; 1 mg/kg IV, 4 h
  % BTK Remaining: 9%
[5]; 1 mg/kg IV, 8 h
  % BTK Remaining: 4%
[5]; 1 mg/kg IV, 24 h
  % BTK Remaining: 7%
[5]; 10 mg/kg PO, 2 h
  % BTK Remaining: 81%
[5]; 10 mg/kg PO, 4 h
  % BTK Remaining: 39%
[5]; 10 mg/kg PO, 8 h
  % BTK Remaining: 17%
[5]; 10 mg/kg PO, 24 h
  % BTK Remaining: 12%
[5]; 30 mg/kg PO, 2 h
  % BTK Remaining: 89%
[5]; 30 mg/kg PO, 4 h
  % BTK Remaining: 51%
[5]; 30 mg/kg PO, 8 h
  % BTK Remaining: 26%
[5]; 30 mg/kg PO, 24 h
  % BTK Remaining: 19%
[5]; 100 mg/kg PO, 2 h
  % BTK Remaining: 97%
[5]; 100 mg/kg PO, 4 h
  % BTK Remaining: 56%
[5]; 100 mg/kg PO, 8 h
  % BTK Remaining: 20%
[5]; 100 mg/kg PO, 24 h
  % BTK Remaining: 12%
[6]; Dog Beagle, 1 mg/kg IV
  AUC: 1.2 µM·h
  clearance: 18.4 mL/min/kg
  Vd: 7 L/kg
[6]; Dog Beagle, 10 mg/kg PO
  AUC: 0.11 µM·h
  bioavailability: 0.9%
[6]; Monkey cynomolgus, 1 mg/kg IV
  AUC: 1 µM·h
  clearance: 22.2 mL/min/kg
  Vd: 7.5 L/kg
[6]; Monkey cynomolgus, 10 mg/kg PO
  AUC: 0.09 µM·h
  bioavailability: 0.8%
[6]; Monkey cynomolgus, 30 mg/kg PO
  AUC: 0.08 µM·h
[6]; Mouse Balb/c, 1 mg/kg IV
  AUC: 4.5 µM·h
  clearance: 5.2 mL/min/kg
  Vd: 1 L/kg
[6]; Mouse Balb/c, 10 mg/kg PO
  AUC: 16 µM·h
  bioavailability: 35%
[6]; Mouse Balb/c, 30 mg/kg PO
  AUC: 27.7 µM·h
  bioavailability: 1%
[6]; Mouse Balb/c, 90 mg/kg PO
  AUC: 37.5 µM·h
  bioavailability: 1%
[6]; Mouse CD-1, 1 mg/kg IV
  AUC: 1.8 µM·h
  clearance: 12.6 mL/min/kg
  Vd: 1.5 L/kg
[6]; Mouse CD-1, 10 mg/kg PO
  AUC: 11.5 µM·h
  bioavailability: 64%
[6]; Rat Sprague-Dawley, 1 mg/kg IV
  AUC: 1.2 µM·h
  clearance: 19 mL/min/kg
  Vd: 2.8 L/kg
[6]; [10]
  AUC: 0.88 µM·h
  bioavailability: 7%
[7]; [11]
  AUC: 12.2 µM·h
  Cmax: 940 nM
[7]; [12]
  AUC: 22.8 µM·h
  Cmax: 1640 nM
[7]; [13]
  AUC: 27.7 µM·h
  Cmax: 2050 nM
[7]; [14]
  AUC: 33.4 µM·h
  Cmax: 2410 nM
[7]; [15]
  AUC: 38.6 µM·h
  Cmax: 2610 nM
[7]; [16]
  AUC: 64.2 µM·h
  Cmax: 4100 nM
[8]; 10 mg/kg, 10 mg/kg PO, 1 day of dosing
  AUC: 0.386 µM·h
[8]; [11]
  AUC: 0.72 µM·h
[8]; [13]
  Cmax: 76 nM
[8]; [14]
  AUC: 2.66 µM·h
[9]
  DC50: 1.9 nM
